Test systems include K-562 leukemia; HCC-2998 colon; SF-539 CNS; MDA-N; DU-145 prostate; OVCAR-5 ovarian; NCI-H23 lung; NCI-H460 lung; SN12C renal; HT29 colon; PC-3 prostate; MCF7 breast; SF-268 CNS; KM12 colon; U251 CNS; MDA-MB-231 breast; SK-OV-3 ovarian; EKVX NSCLC; HS 578T breast.
Holding throughout (assay): inhibition of tumour cell growth, NCI panel, 48 h

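Cells were grown in 96-well plates and exposed to each compound for 48 hours at five concentrations; endpoints were interpolated linearly between bracketing concentrations, or set to the highest concentration if not reached. Definition used: TGI = concentration required for complete inhibition of growth.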

For the compound `Cn1cnnc1SC(F)(F)c1nc2ccccc2o1`, the TGI in the assay on K-562 leukemia, in the assay with HCC-2998 colon, with SF-539 CNS, with MDA-N, in the assay with DU-145 prostate and with OVCAR-5 ovarian was greater than 100 µM in each case. Moreover, the TGI with NCI-H23 lung, in the assay on NCI-H460 lung, in the assay on SN12C renal, in the assay with HT29 colon, in the assay with PC-3 prostate and in the assay with MCF7 breast was greater than 100 µM throughout. Moreover, the TGI in the assay with SF-268 CNS, in the assay with KM12 colon, in the assay with U251 CNS, in the assay with MDA-MB-231 breast and in the assay on SK-OV-3 ovarian was greater than 100 µM in each case.
On to `COc1ccc2nc(-c3ccc(O)cc3)ccc2c1`, for which the TGI in the assay with K-562 leukemia, in the assay with EKVX NSCLC, in the assay with HCC-2998 colon, in the assay on SF-539 CNS, in the assay on OVCAR-5 ovarian and with NCI-H23 lung was greater than 100 µM throughout. The TGI with NCI-H460 lung, with SN12C renal, in the assay with HT29 colon, in the assay with KM12 colon and with SK-OV-3 ovarian was greater than 100 µM throughout.
In the case of `COC(=O)c1cc2ccccc2c2nc3ccccc3c(Cl)c12`, the TGI in the assay with K-562 leukemia, in the assay on EKVX NSCLC, in the assay with HCC-2998 colon, in the assay on SF-539 CNS, in the assay with NCI-H23 lung and with SN12C renal was greater than 100 µM each time. In addition, the TGI in the assay with HT29 colon, with SF-268 CNS, in the assay on KM12 colon and in the assay on U251 CNS was greater than 100 µM throughout.
Turning to `Cc1cc(OC(=O)c2c(C)cc(OC(=O)c3c(C)cc(O)cc3O)cc2O)cc(O)c1C(=O)O`, the TGI with K-562 leukemia, with EKVX NSCLC, in the assay with HCC-2998 colon, with SF-539 CNS, in the assay on OVCAR-5 ovarian and with NCI-H23 lung was greater than 100 µM each time. The TGI in the assay with NCI-H460 lung, in the assay with SN12C renal, in the assay with HT29 colon, with SF-268 CNS, with KM12 colon and in the assay on U251 CNS was greater than 100 µM in each case. This compound also returned a TGI in the assay with SK-OV-3 ovarian greater than 100 µM.
Regarding `CCOC(=O)C1=C(C)N(CC(C)C)C2(O)C(OC)CC(=O)C3C(=O)N(c4ccccc4)C(=O)C132` (configuration not stated), the TGI with K-562 leukemia is greater than 100 µM; in the assay on EKVX NSCLC, greater than 100 µM; with HCC-2998 colon it was 53.8 µM; with SF-539 CNS it was greater than 100 µM; with DU-145 prostate it was greater than 100 µM; with OVCAR-5 ovarian it was greater than 100 µM. The TGI with HS 578T breast was greater than 100 µM; in the assay on NCI-H23 lung, greater than 100 µM; with NCI-H460 lung, greater than 100 µM; in the assay on SN12C renal it was greater than 100 µM; in the assay on HT29 colon it was 57.1 µM; in the assay on PC-3 prostate, greater than 100 µM. In addition, the TGI was greater than 100 µM in the assay with MCF7 breast; greater than 100 µM in the assay on SF-268 CNS; 90 µM in the assay on KM12 colon; greater than 100 µM in the assay on U251 CNS; greater than 100 µM in the assay with MDA-MB-231 breast.
For `O=C(NN1C(=O)C(Cl)C1c1c(O)ccc2ccccc12)c1ccccc1O` (configuration not stated), the TGI in the assay with K-562 leukemia, in the assay with SF-539 CNS, with NCI-H23 lung, in the assay on NCI-H460 lung, in the assay on SN12C renal and in the assay with HT29 colon was greater than 100 µM each time. The TGI in the assay on SF-268 CNS, in the assay on KM12 colon, in the assay on U251 CNS and with SK-OV-3 ovarian was greater than 100 µM in each case.
For the compound `C/C(CC(=O)Nc1cccc(Cl)c1C)=N\N=C(N)N`, the TGI with K-562 leukemia, in the assay on EKVX NSCLC, with HCC-2998 colon, in the assay on SF-539 CNS, in the assay on OVCAR-5 ovarian and in the assay with NCI-H23 lung was greater than 100 µM in each case. In addition, the TGI in the assay on NCI-H460 lung, in the assay with SN12C renal, in the assay on HT29 colon, in the assay on SF-268 CNS, with KM12 colon and with U251 CNS was greater than 100 µM in each case. For the same compound, the TGI with SK-OV-3 ovarian was greater than 100 µM.
In the case of `C1=C(c2ccccc2)C(OC2Oc3ccccc3C=C2c2ccccc2)Oc2ccccc21` (configuration not stated), the TGI in the assay with K-562 leukemia, with EKVX NSCLC, in the assay with HCC-2998 colon, in the assay with OVCAR-5 ovarian, with NCI-H23 lung and with NCI-H460 lung was greater than 100 µM throughout. Besides, the TGI with SN12C renal was greater than 100 µM; with HT29 colon, greater than 100 µM; with SF-268 CNS it was greater than 100 µM; with KM12 colon, greater than 100 µM; in the assay with U251 CNS, 45.1 µM; with SK-OV-3 ovarian, greater than 100 µM.
Take `CCOP(=O)(/C=C\n1ccc(=O)[nH]c1=O)OCC`: the TGI in the assay with K-562 leukemia, with EKVX NSCLC, in the assay with SF-539 CNS, with MDA-N, in the assay with DU-145 prostate and with OVCAR-5 ovarian was greater than 100 µM throughout. Also, the TGI with NCI-H23 lung, in the assay on SN12C renal, in the assay with HT29 colon, in the assay with PC-3 prostate, in the assay on MCF7 breast and in the assay on SF-268 CNS was greater than 100 µM in each case. Moreover, the TGI in the assay with KM12 colon, in the assay on U251 CNS, in the assay with MDA-MB-231 breast and with SK-OV-3 ovarian was greater than 100 µM each time.
Turning to `COc1cccc2c1[C@H]1OC(=O)NC1CCCCC2` (some centres not stated), the TGI in the assay on K-562 leukemia, in the assay with EKVX NSCLC, in the assay on HCC-2998 colon, with SF-539 CNS, in the assay on OVCAR-5 ovarian and in the assay with NCI-H23 lung was greater than 100 µM each time. Moreover, the TGI in the assay with NCI-H460 lung, in the assay on SN12C renal, in the assay on HT29 colon, with SF-268 CNS, with KM12 colon and in the assay on U251 CNS was greater than 100 µM each time. Besides, the TGI in the assay with SK-OV-3 ovarian is greater than 100 µM.

The values above are taken from PubChem BioAssay (NCI).
